# US11420935B2, “Bicyclic compounds” (Vivace Therapeutics, Inc., priority 2019, dated 2022)
# System: 8×TBD luciferase reporter (YAP) in HEK293T cells
# Experiment: YAP Reporter Assay (8×TBD firefly luciferase reporter)
# Type: cell-based
# Conditions: Homo sapiens, HEK-293T; HEK293T cells stably transfected with 8×TBD luciferase reporter and pRLTK; 24-hr incubation; firefly luciferase activity; read-out: Firefly Luciferase IC50
# Protocol: HEK293T cells stably transfected with 8×TBD luciferase reporter and pRLTK in 384-well plates were treated with the test compounds, starting from 3 μM (final concentration in assay plate), 1:3 dilution, and 10 points in quadruplicates. Post 24-hr incubation with compounds at 37° C. and 5% CO2, cells were lysed and 8×TBD-driven firefly luciferase and control TK-driven renilla luciferase activities were measured using Promega Dual-Luciferase Reporter Assay System.
# Reagents: The reagents used for this study are: DMEM: Invitrogen #11960077, Dual-Glo Luciferase Assay System: Promega-E2980, Puromycin Dihydrochloride: Invitrogen-A1113803, 384-well plate: PerkinElmer-6007480, L-GLUTAMINE: Invitrogen-25030164, Hygromycin B: Invitrogen-10687010, and Penicillin-Streptomycin: Merk-TMS-AB2-C
# Media: The media used for this assay were: Culture Medium: DMEM+1 ug/mL puromycin+200 ug/mL hygromycin (with 10% FBS+1 mM L-glutamine); and Assay Medium: DMEM (with 10% FBS+1 mM L-glutamine+1×P/S).
# Cell Plating: The appropriate media was warmed at 37° C. by water bath: Culture Medium, Assay Medium, 1*D-PBS, 0.05% trypsin-EDTA. The cells were trypsinized after removing all media, then washed with 1*sterile D-PBS and then with 2 ml 0.05% trypsin-EDTA. The cells were then incubated at RT for one minute. Then 10 ml/75 cm2 flask Assay Medium was added to each flask. Using a 10 ml pipette, the cells were then gently resuspended in the media, until the clumps completely disappeared. The cells were then transferred into 50 ml centrifuge tubes and were centrifuged at 800 rpm for 5 mins. The medium was removed and the cells were resuspended with Assay Medium. An aliquot of cells was used to count the cell density (cells/ml). The cell suspension was then diluted with Assay Medium to a concentration of 6×10^4 cells/ml. 50 ul cells suspension was then plated to 384-well plate (PerkinElmer-6007480), 3×10^3 cells/well and the cells were incubated in an incubator at 37° C., 5% CO2.
# Compound Treatment: In the afternoon (incubation of the plate with 3-4 hrs), the test compounds were added by Echo, starting from 3 uM (final concentration in the assay plate), 1:3 dilution, 10 points, quadruplicates. The plate was placed at 37° C., 5% CO2 incubator for 24 hrs.
# Detection: The Dual-Glo Luciferase Reagent was prepared by transferring the contents of one bottle of Dual-Glo Luciferase Buffer to one bottle of Dual-Glo Luciferase Substrate to create the Dual-Glo Luciferase Reagent. Mixing was performed by inversion until the substrate was thoroughly dissolved. After mixing, the reagent was aliquoted into 15 ml tubes. In the afternoon (24 hrs post compound treatment), the DMEM+medium in the 384 well plates were aspirated by Microplate Washer.
# Measuring firefly luciferase activity: 20 ul Dual-Glo Luciferase Reagent was added to the 384-well plates. The plates were protected from light to prevent interference with the assay. The plates were shaken for 1 min followed centrifuging plates at 1000 rpm for 30 seconds. After waiting at least 10 minutes, the firefly luminescence was measured by Envision.
# Measuring renilla luciferase activity: 20 ul Stop-Glo Reagent was added to the 384-well plates. The plates were shaken for 1 min and then centrifuged at 1000 rpm for 30 seconds. After waiting at least 10 minutes, the renilla luminescence was measured by Envision.
# Compound IC50 and maximum inhibition on the firefly luciferase and renilla luciferase activities were reported separately.
row,Compound,IC50 [nM]
1,"O=C(NC(CO)Cc1ccccn1)c1ccc2c(Oc3ccc(C(F)(F)F)cc3)cccc2c1 (stereo not shown) [Compound 80, N-[1-(hydroxymethyl)-2-(2-pyridyl)ethyl]-5-[4-(trifluoromethyl)phenoxy]naphthalene-2-carboxamide]",< 100
2,"C[C@H](CCNCCO)NC(=O)c1ccc2c(Oc3ccc(C(F)(F)F)cc3)cccc2c1 [Compound 147, (R)-N-(4-((2-hydroxyethyl)amino)butan-2-yl)-5-(4-(trifluoromethyl)phenoxy)-2-naphthamide]",< 100
3,"C[C@H](NC(=O)c1ccc2c(Oc3ccc(C(F)(F)F)cc3)cccc2c1)C1CN(CC(F)F)C1 [Compound 134, (S)—N-(1-(1-(2,2-difluoroethyl)azetidin-3-yl)ethyl)-5-(4-(trifluoromethyl)phenoxy)-2-naphthamide]",1000 to 3000
4,"C[C@@H](NC(=O)c1ccc2c(Oc3ccc(C(F)(F)F)cc3)cccc2c1)C1CN(C)C1 [Compound 126, (R)—N-(1-(1-methylazetidin-3-yl)ethyl)-5-(4-(trifluoromethyl)phenoxy)-2-naphthamide]",100 to 1000
5,"C[C@H](NC(=O)c1ccc2c(Oc3ccc(C(F)(F)F)cc3)cccc2c1)c1nnnn1C [Compound 55, (S)—N-(1-(1-methyl-1H-tetrazol-5-yl)ethyl)-5-(4-(trifluoromethyl)phenoxy)-2-naphthamide]",100 to 1000
6,"C[C@H](CCNCC(F)F)NC(=O)c1ccc2c(Oc3ccc(C(F)(F)F)cc3)cccc2c1 [Compound 149, (R)-N-(4-((2,2-difluoroethyl)amino)butan-2-yl)-5-(4-(trifluoromethyl)phenoxy)-2-naphthamide]",< 100
7,"O=C(N[C@@H](CO)c1ccccn1)c1ccc2c(Oc3ccc(C(F)(F)F)cc3)cccc2c1 [Compound 120, (R)—N-(2-hydroxy-1-(pyridin-2-yl)ethyl)-5-(4-(trifluoromethyl)phenoxy)-2-naphthamide]",100 to 1000
8,"CC(C)N1CC([C@H](C)NC(=O)c2ccc3c(Oc4ccc(C(F)(F)F)cc4)cccc3c2)C1 [Compound 132, (S)—N-(1-(1-isopropylazetidin-3-yl)ethyl)-5-(4-(trifluoromethyl)phenoxy)-2-naphthamide]",100 to 1000
9,"CNS(=O)(=O)c1ccc2c(Oc3ccc(C(F)(F)F)cc3)cccc2c1 [Compound 7, N-methyl-5-(4-(trifluoromethyl)phenoxy)naphthalene-2-sulfonamide]",< 100
10,"C[C@H](CCN)NC(=O)c1ccc2c(Oc3ccc(C(F)(F)F)cc3)cccc2c1 [Compound 112, (R)—N-(4-aminobutan-2-yl)-5-(4-(trifluoromethyl)phenoxy)-2-naphthamide]",< 100
11,"C[C@H](NC(=O)c1ccc2c(Oc3ccc(C(F)(F)F)cc3)cccc2c1)c1cccc(N)n1 [Compound 65, (S)—N-(1-(6-aminopyridin-2-yl)ethyl)-5-(4-(trifluoromethyl)phenoxy)-2-naphthamide]",100 to 1000
12,"CC(=O)N1CC([C@@H](C)NC(=O)c2ccc3c(Oc4ccc(C(F)(F)F)cc4)cccc3c2)C1 [Compound 101, (R)—N-(1-(1-acetylazetidin-3-yl)ethyl)-5-(4-(trifluoromethyl)phenoxy)-2-naphthamide]",100 to 1000
13,"CN(C#N)CCCNC(=O)c1ccc2c(Oc3ccc(C(F)(F)F)cc3)cccc2c1 [Compound 35, N-(3-(N-methylcyanamido)propyl)-5-(4-(trifluoromethyl)phenoxy)-2-naphthamide]",< 100
14,"C[C@H](NC(=O)c1ccc2c(Oc3ccc(C(F)(F)F)cc3)cccc2c1)c1ccccc1Cl [Compound 83, (S)—N-(1-(2-chlorophenyl)ethyl)-5-(4-(trifluoromethyl)phenoxy)-2-naphthamide]",< 100
15,"C[C@H](NC(=O)c1ccc2c(Oc3ccc(C(F)(F)F)cc3)cccc2c1)C1CC1 [Compound 39, (S)—N-(1-cyclopropylethyl)-5-(4-(trifluoromethyl)phenoxy)-2-naphthamide]",< 100
16,"CCNCC[C@@H](C)NC(=O)c1ccc2c(Oc3ccc(C(F)(F)F)cc3)cccc2c1 [Compound 146, (R)-N-(4-(ethylamino)butan-2-yl)-5-(4-(trifluoromethyl)phenoxy)-2-naphthamide]",< 100
17,"COc1cc(Oc2ccc(C(F)(F)F)cc2)c2ncc(C(=O)N[C@H](C)CO)cc2c1 [Compound 116, (R)—N-(1-hydroxypropan-2-yl)-6-methoxy-8-(4-(trifluoromethyl)phenoxy)quinoline-3-carboxamide]",< 100
18,"COc1cc(Oc2ccc(C(F)(F)F)cc2)c2ncc(C(=O)NC(CO)c3ccccn3)cc2c1 (stereo not shown) [Compound 118, N-(2-Hydroxy-1-(pyridin-2-yl)ethyl)-6-methoxy-8-(4-(trifluoromethyl)phenoxy)quinoline-3-carboxamide]",< 100
19,"C[C@@H](NC(=O)c1ccc2c(Oc3ccc(C(F)(F)F)cc3)cccc2c1)c1nnn(C)n1 [Compound 57, (R)—N-(1-(2-methyl-2H-tetrazol-5-yl)ethyl)-5-(4-(trifluoromethyl)phenoxy)-2-naphthamide]",100 to 1000
20,"COC[C@H](C)NC(=O)c1cnc2c(Oc3ccc(C(F)(F)F)cc3)cc(OC)cc2c1 [Compound 45, (S)-6-methoxy-N-(1-methoxypropan-2-yl)-8-(4-(trifluoromethyl)phenoxy)quinoline-3-carboxamide]",< 100
21,"C[C@@H](NC(=O)c1ccc2c(Oc3ccc(C(F)(F)F)cc3)cccc2c1)C(N)=O [Compound 51, (R)—N-(1-amino-1-oxopropan-2-yl)-5-(4-(trifluoromethyl)phenoxy)-2-naphthamide]",< 100
22,"C[C@H](NC(=O)c1ccc2c(Oc3ccc(C(F)(F)F)cc3)cccc2c1)c1cc(N(C)C)ccn1 [Compound 73, (S)—N-(1-(4-(dimethylamino)pyridin-2-yl)ethyl)-5-(4-(trifluoromethyl)phenoxy)-2-naphthamide]",100 to 1000
23,"C[C@@H](NC(=O)c1ccc2c(Oc3ccc(C(F)(F)F)cc3)cccc2c1)C1COC1 [Compound 40, (R)—N-(1-(oxetan-3-yl)ethyl)-5-(4-(trifluoromethyl)phenoxy)-2-naphthamide]",< 100
24,"CC(C)NC(=O)c1ccc2c(Oc3ccc(C(F)(F)F)cc3Cl)cccc2c1 [Compound 85, 5-(2-chloro-4-(trifluoromethyl)phenoxy)-N-isopropyl-2-naphthamide]",< 100
25,"C[C@@H](NC(=O)c1ccc2c(Oc3ccc(C(F)(F)F)cc3)cccc2c1)C1(O)CNC1 [Compound 139, (R)—N-(1-(3-hydroxyazetidin-3-yl)ethyl)-5-(4-(trifluoromethyl)phenoxy)-2-naphthamide]",< 100
26,"C[C@@H](NC(=O)c1ccc2c(Oc3ccc(C(F)(F)F)cc3)cccc2c1)C1CN(CCCCO)C1 [Compound 123, (R)—N-(1-(1-(4-hydroxybutyl)azetidin-3-yl)ethyl)-5-(4-(trifluoromethyl)phenoxy)-2-naphthamide]",100 to 1000
27,"C[C@@H](NC(=O)c1cnc2c(Oc3ccc(C(F)(F)F)cc3)cccc2c1)c1cccc2nc[nH]c12 [Compound 103, (R)—N-(1-(1H-benzo[d]imidazol-7-yl)ethyl)-8-(4-(trifluoromethyl)phenoxy)quinoline-3-carboxamide]",100 to 1000
28,"CC#C[C@H](C)NC(=O)c1ccc2c(Oc3ccc(C(F)(F)F)cc3)cccc2c1 [Compound 89, N-[(1S)-1-methylbut-2-ynyl]-5-[4-(trifluoromethyl)phenoxy]naphthalene-2-carboxamide]",< 100
